Measured values taken from US20170205398A1, “DRUG SCREENING AND POTENCY ASSAYS” (REGENMED (CAYMAN) LTD., priority 2011, published 2017).

Tested on: γ-glutamyl transpeptidase (GGT)
Test: Amphotericin B knockdown of SRC/NKA ex vivo GGT (western blot band density, semilogarithmic dose response)
Format: cell-based, human
Description: Morphological, genotypic, phenotypic and functional changes to 2D cultured SRC were monitored to 72hrs following exposure to escalating doses of the well known nephrotoxin, Amphotericin B (Amp B). The TC50 was estimated by Amp B knockdown of SRC/NKA ex vivo GGT activity.
GGT inhibition detected by western blot is shown in below in Table 16.1.
Results from semilogarithmic dose response analysis are shown below in Table 16.2.

In the case of `C[C@@H]1[C@H](O)[C@@H](C)/C=C/C=C/C=C/C=C/C=C/C=C/C=C/[C@H](O[C@@H]2O[C@H](C)[C@@H](O)[C@H](N)[C@@H]2O)C[C@@H]2O[C@](O)(C[C@@H](O)C[C@@H](O)[C@H](O)CC[C@@H](O)C[C@@H](O)CC(=O)O[C@H]1C)C[C@H](O)[C@H]2C(=O)O` [Amphotericin B], the IC50 (2D cultured SRC, exposure to 72 hrs, sigmoidal fit Log(inhibitor) vs response, read-out: IC50 of inhibitory effect on SRC-mediated GGT) is reported as 32.3 µM, the LOGIC50 (Log(inhibitor) vs response fit, 2D cultured SRC) is reported as 1.510 and the “GGT western blot band density (response)” value ([c] 0.01) is reported as 18764. The “inv response (inverse of band density)” value ([c] 0.01) was 5.329E−05, the “GGT western blot band density (response)” value ([c] 0.1) was 18959 and the “inv response (inverse of band density)” value ([c] 0.1) was 5.275E−05. For the same compound, the “GGT western blot band density (response)” value ([c] 1) was 17112, the “inv response (inverse of band density)” value ([c] 1) was 5.844E−05 and the “GGT western blot band density (response)” value ([c] 10) was 16611. The “inv response (inverse of band density)” value ([c] 10) was 6.02E−05, the “GGT western blot band density (response)” value ([c] 100) was 8227 and the “inv response (inverse of band density)” value ([c] 100) was 0.0001216. For the same compound, the “GGT western blot band density (response)” value ([c] 1000) was 8000, the “inv response (inverse of band density)” value ([c] 1000) was 0.000125 and the “GGT western blot band density (response)” value ([c] 10000) was 7800. For the same compound, the “inv response (inverse of band density)” value ([c] 10000) was 0.0001282.
